ChEMBL document CHEMBL1201862, “PubChem BioAssay data set” (2004)
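All cell lines were grown in 96-well plates and treated with compound for 48 hours. Here, GI50 denotes the concentration required for 50% inhibition of growth.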 The source made the active and inactive calls. Rule as the data show it: active = GI50 up to about 1.1 µM and inactive = higher.

What was measured:
Assay in all cases: growth of human tumour cells (NCI), 48 h
A498 = tested on: A498
BT-549 = tested on: BT-549
COLO 205 = tested on: COLO 205
EKVX = tested on: EKVX
HCT-116 = tested on: HCT-116
HCT-15 = tested on: HCT-15
HT-29 = tested on: HT-29
IGROV-1 = tested on: IGROV-1
KM12 = tested on: KM12
M14 = tested on: M14
MCF7 = tested on: MCF7
MDA-MB-231 = tested on: MDA-MB-231
NCI-H226 = tested on: NCI-H226
OVCAR-5 = tested on: OVCAR-5
PC-3 = tested on: PC-3
RXF 393 = tested on: RXF 393
SF-539 = tested on: SF-539
SK-MEL-28 = tested on: SK-MEL-28
SW-620 = tested on: SW-620
T47D = tested on: T47D

Structure (SMILES) | GI50 (A498) | GI50 (BT-549) | GI50 (COLO 205) | GI50 (EKVX) | GI50 (HCT-116) | GI50 (HCT-15) | GI50 (HT-29) | GI50 (IGROV-1) | GI50 (KM12) | GI50 (M14) | GI50 (MCF7) | GI50 (MDA-MB-231) | GI50 (NCI-H226) | GI50 (OVCAR-5) | GI50 (PC-3) | GI50 (RXF 393) | GI50 (SF-539) | GI50 (SK-MEL-28) | GI50 (SW-620) | GI50 (T47D)
N#CC12CC3=C(N=C1NC1=C(CCc4ccccc41)C2)c1ccccc1CC3 (stereo not given) | 1.8 µM (inactive) | 9.29 µM (inactive) | 1.73 µM (inactive) | 4.67 µM (inactive) | 1.95 µM (inactive) | 1.76 µM | 0.533 µM (active) | 1.44 µM (inactive) | 0.938 µM (active) | 2.76 µM (inactive) | 0.594 µM (active) | 4.16 µM (inactive) | 3.73 µM (inactive) | 4.22 µM (inactive) | 2.12 µM (inactive) | 3.4 µM (inactive) | 2.53 µM (inactive) | 4.06 µM (inactive) | 0.871 µM (active) | 6.67 µM (inactive)
NC(CSS(=O)(=O)c1ccccc1)C(=O)O (stereo not given) | > 10 µM (inactive) | > 10 µM (inactive) | > 10 µM (inactive) | > 10 µM (inactive) | > 10 µM (inactive) | > 10 µM | > 10 µM (inactive) | > 10 µM (inactive) | > 10 µM (inactive) | > 10 µM (inactive) | > 10 µM (inactive) | > 10 µM (inactive) | > 10 µM (inactive) | > 10 µM (inactive) | > 10 µM (inactive) | > 10 µM (inactive) | > 10 µM (inactive) | > 10 µM (inactive) | > 10 µM (inactive) | > 10 µM (inactive)
Cc1oncc1/N=C1\C=C(O)C(=O)c2ccccc21 | 13.2 µM (inactive) | 12.4 µM (inactive) | 17 µM (inactive) | 14.6 µM (inactive) | 3.16 µM (inactive) | 3.72 µM | 3.65 µM (inactive) | 3.57 µM (inactive) | 6.21 µM (inactive) | 6.1 µM (inactive) | 2.68 µM (inactive) | 8.47 µM (inactive) | 19 µM (inactive) | 13.5 µM (inactive) | 2.42 µM (inactive) | 13.2 µM (inactive) | 4.65 µM (inactive) | 15.4 µM (inactive) | 4.4 µM (inactive) | 3.3 µM (inactive)
COc1ccc2c(c1)CCc1cc(C(N)=O)c3nnnn3c1-2 | 18.2 µM (inactive) | 35.5 µM (inactive) | > 100 µM (inactive) | < 0.0224 µM (active) | 67.1 µM (inactive) | > 100 µM | > 100 µM (inactive) | 39.3 µM (inactive) | > 100 µM (inactive) | > 100 µM (inactive) | > 100 µM (inactive) | > 49.2 µM (inactive) | > 100 µM (inactive) | > 100 µM (inactive) | > 57.9 µM (inactive) | 16.9 µM (inactive) | 78.7 µM (inactive) | > 100 µM (inactive) | > 100 µM (inactive) | 25.2 µM (inactive)
Cc1nc(Nc2ccc(Cl)c(Cl)c2)sc1C(/C=C/c1ccc2c(c1)OCO2)=N/Nc1ccc([N+](=O)[O-])cc1[N+](=O)[O-] | > 50.9 µM (inactive) | > 100 µM (inactive) | > 100 µM (inactive) | > 100 µM (inactive) | 56.5 µM (inactive) | > 97.1 µM | > 100 µM (inactive) | > 100 µM (inactive) | > 88.7 µM (inactive) | 61.7 µM (inactive) | > 100 µM (inactive) | > 100 µM (inactive) | > 59 µM (inactive) | > 100 µM (inactive) | > 100 µM (inactive) | 27.2 µM (inactive) | 43.8 µM (inactive) | > 100 µM (inactive) | > 100 µM (inactive) | > 100 µM (inactive)
CC(C)CCNC(=O)c1ccc(CNC(=O)/C=C/c2ccc3c(c2)-c2ccccc2C3)cc1 | > 100 µM (inactive) | 87.3 µM (inactive) | 88.1 µM (inactive) | > 100 µM (inactive) | 59.8 µM (inactive) | 41.5 µM | 41.5 µM (inactive) | 58.7 µM (inactive) | 33.3 µM (inactive) | 74.3 µM (inactive) | > 100 µM (inactive) | 34.5 µM (inactive) | 60 µM (inactive) | > 100 µM (inactive) | 42.9 µM (inactive) | 39.1 µM (inactive) | > 100 µM (inactive) | 34 µM (inactive) | 44.8 µM (inactive) | 39 µM (inactive)
CCCCCC(/C=C/C1CCC(=O)C1CC#C[Si](C)(C)C)OCc1ccccc1 (stereo not given) | 36.3 µM (inactive) | 17.3 µM (inactive) | 19.2 µM (inactive) | 16.9 µM (inactive) | 15.8 µM (inactive) | 15.6 µM | 16.3 µM (inactive) | 14.5 µM (inactive) | 16.2 µM (inactive) | 25 µM (inactive) | 19.1 µM (inactive) | 23.1 µM (inactive) | 30.5 µM (inactive) | 19.9 µM (inactive) | 17.3 µM (inactive) | 13.9 µM (inactive) | 12.1 µM (inactive) | 23 µM (inactive) | 24 µM (inactive) | 23.2 µM (inactive)
